These results are taken from patent publication US10144706B2 (BRISTOL-MYERS SQUIBB COMPANY, priority 2016, dated 2018).

As a reminder, the IC50 is the concentration needed to halve the response being measured.

In one assay the target is T1, PD-1/PD-L1 interaction (PD-1-Ig / PD-L1-His) (Homo sapiens, UniProt Q9NZQ7).
T1 construct: hPDL1(18-239)-TVMV-His; TVMV protease site linker (C); made in house; host or cells: HEK293T
T1 sequence (Q9NZQ7 with tags, fused parts or gaps): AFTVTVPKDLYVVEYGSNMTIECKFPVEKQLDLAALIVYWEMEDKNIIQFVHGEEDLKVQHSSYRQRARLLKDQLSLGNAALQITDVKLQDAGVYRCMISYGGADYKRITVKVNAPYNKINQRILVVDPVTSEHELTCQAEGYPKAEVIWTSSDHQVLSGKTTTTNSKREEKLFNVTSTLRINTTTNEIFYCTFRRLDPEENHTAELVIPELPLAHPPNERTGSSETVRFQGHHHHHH
As to the kind of experiment: PD-1/PD-L1 Homogenous Time-Resolved Fluorescence (HTRF) binding assay. As to conditions: IC50 range class; PD-L1-His 10 nM, PD-1-Ig 20 nM; read-out: Range or IC50. In short, it runs like this:
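Human PD-L1-His (10 nM final) was pre-incubated with inhibitor for 15 min, then PD-1-Ig (20 nM final) was added for a further 15 min in dPBS with 0.1% BSA and 0.05% Tween-20. Binding was detected by HTRF using Eu-cryptate anti-Ig (1 nM) and APC anti-His (20 nM).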
(In general: Time-resolved FRET reads energy transfer from a long-lived donor to a nearby acceptor.)
As to `N#Cc1cncc(COc2cc(OCc3cccc(-c4cccc(COc5cc(OCc6cncc(C#N)c6)c(C(=O)N6CCCC(O)C6)cc5Cl)c4Cl)c3Cl)c(Cl)cc2C(=O)N2CCCC(O)C2)c1` (stereo not drawn) [Example 80040], the 50% inhibitory concentration (IC50) was in the range of 20.1 to 90 nM.
Same read-out and setting: the figure for `N#Cc1cncc(COc2cc(OCc3cccc(-c4cccc(COc5cc(OCc6cncc(C#N)c6)c(C(=O)N6CCOCC6)cc5Cl)c4Cl)c3Cl)c(Cl)cc2C(=O)N2CCOCC2)c1` [Example 80050] is 20.1 to 90 nM; for `N#Cc1cncc(COc2cc(OCc3cccc(-c4cccc(COc5cc(OCc6cncc(C#N)c6)c(C(=O)N6CCC(O)CC6)cc5Cl)c4Cl)c3Cl)c(Cl)cc2C(=O)N2CCC(O)CC2)c1` [Example 80060] it is 0.04 to 20 nM; for `Cc1c(COc2cc(OCc3cncc(C#N)c3)c(C(=O)NCc3ccncn3)cc2Cl)cccc1-c1cccc(COc2cc(OCc3cncc(C#N)c3)c(C(=O)NCc3ccncn3)cc2Cl)c1C` [Example 80090] it is 90.1 to 1000 nM.
Same read-out and setting: the figure for `Cc1c(COc2cc(OCc3cncc(C#N)c3)c(C(=O)N3CCOCC3)cc2Cl)cccc1-c1cccc(COc2cc(OCc3cncc(C#N)c3)c(C(=O)N3CCOCC3)cc2Cl)c1C` [Example 80100] is 0.04 to 20 nM; for `N#Cc1cncc(COc2cc(OCc3cccc(-c4cccc(COc5cc(OCc6cncc(C#N)c6)c(C(=O)N6CCS(=O)(=O)CC6)cc5Cl)c4Cl)c3Cl)c(Cl)cc2C(=O)N2CCS(=O)(=O)CC2)c1` [Example 80140] it is 0.04 to 20 nM; for `N#Cc1cncc(COc2cc(OCc3cccc(-c4cccc(COc5cc(OCc6cncc(C#N)c6)c(C(=O)NCC6(CO)CC6)cc5Cl)c4Cl)c3Cl)c(Cl)cc2C(=O)NCC2(CO)CC2)c1` [Example 80160] it is 1000 to 10000 nM.
`N#Cc1cncc(COc2cc(OCc3cccc(-c4cccc(COc5cc(OCc6cncc(C#N)c6)c(C(=O)NC6COC6)cc5Cl)c4Cl)c3Cl)c(Cl)cc2C(=O)NC2COC2)c1` [Example 80180]: the IC50 is 1000 to 10000 nM.
Same read-out and setting: the result for `N#Cc1cncc(COc2cc(OCc3cccc(-c4cccc(COc5cc(OCc6cncc(C#N)c6)c(C(=O)NCCO)cc5Cl)c4Cl)c3Cl)c(Cl)cc2C(=O)NCCO)c1` [Example 80200] reads 90.1 to 1000 nM; that for `N#Cc1cncc(COc2cc(OCc3cccc(-c4cccc(COc5cc(OCc6cncc(C#N)c6)c(C(=O)N6CCSCC6)cc5Cl)c4Cl)c3Cl)c(Cl)cc2C(=O)N2CCSCC2)c1` [Example 80220], 1000 to 10000 nM.
For the molecule `Cc1c(COc2cc(OCc3cncc(C#N)c3)c(C(=O)N3CCC(=O)CC3)cc2Cl)cccc1-c1cccc(COc2cc(OCc3cncc(C#N)c3)c(C(=O)N3CCC(=O)CC3)cc2Cl)c1C` [Example 80230], the 50% inhibitory concentration (IC50) is 20.1 to 90 nM.
The same measure, in the same setting: the figure for `N#Cc1cncc(COc2cc(OCc3cccc(-c4cccc(COc5cc(OCc6cncc(C#N)c6)c(C(=O)NCCO)cc5Cl)c4Cl)c3Cl)c(Cl)cc2C(=O)O)c1` [Example 90010] is 0.04 to 20 nM.
Same read-out and setting: the result for `N#Cc1cncc(COc2cc(OCc3cccc(-c4cccc(COc5cc(OCc6cncc(C#N)c6)c(C(=O)NC6CC6)cc5Cl)c4Cl)c3Cl)c(Cl)cc2C(=O)O)c1` [Example 90020] reads 20.1 to 90 nM; that for `N#Cc1cncc(COc2cc(OCc3cccc(-c4cccc(COc5cc(OCc6cncc(C#N)c6)c(C(=O)NCCCO)cc5Cl)c4Cl)c3Cl)c(Cl)cc2C(=O)O)c1` [Example 90030], 20.1 to 90 nM.
For the molecule `N#Cc1cncc(COc2cc(OCc3cccc(-c4cccc(COc5cc(OCc6cncc(C#N)c6)c(C(=O)NCC6(CO)CC6)cc5Cl)c4Cl)c3Cl)c(Cl)cc2C(=O)O)c1` [Example 90040], the half-inhibitory concentration (IC50) was in the range of 90.1 to 1000 nM.
Same read-out and setting: the result for `N#Cc1cncc(COc2cc(OCc3cccc(-c4cccc(COc5cc(OCc6cncc(C#N)c6)c(C(=O)NC6COC6)cc5Cl)c4Cl)c3Cl)c(Cl)cc2C(=O)O)c1` [Example 90050] reads 90.1 to 1000 nM.
Same read-out and setting: the result for `N#Cc1cncc(COc2cc(OCc3cccc(-c4cccc(COc5cc(OCc6cncc(C#N)c6)c(C(=O)NCC6CCCO6)cc5Cl)c4Cl)c3Cl)c(Cl)cc2C(=O)O)c1` (stereo not drawn) [Example 90060] reads 1000 to 10000 nM.

Still in this assay, the particulars now being: numeric IC50; PD-L1-His 10 nM, PD-1-Ig 20 nM; read-out: Range or IC50.
Turning to `CC1CCN(C(=O)c2cc(Cl)c(OCc3cccc(-c4cccc(COc5cc(OCc6cncc(C#N)c6)c(C(=O)N6CCC(C)CC6)cc5Cl)c4Cl)c3Cl)cc2OCc2cncc(C#N)c2)CC1` [Example 80120], the 50% inhibitory concentration (IC50) came to 105 nM.
